Laboratory results from PubChem BioAssay AID330 (DTP/NCI, 2004).
Where “and” joins values, the source holds several entries; their conditions need not be identical. Equal entries are not always repeated. Toxic doses and inconclusive results are not listed. How the source made its calls: active means survival T/C of 150% or more; inactive means T/C below 125% in these data. Square brackets hold non-standard residues; d marks the D form. Peptide text beside a SMILES is read from it. * marks the point of attachment. ξ: configuration not given here. Cbz = O=C(OCc1ccccc1)*; ξNva = CCCC(N)C(=O)O

Tested on: P388 leukemia ip, CD2F1 mice, survival T/C
Assay: NCI In Vivo Anticancer Drug Screen. Data for tumor model P388 Leukemia (intraperitoneal) in CD2F1 (CDF1) mice
Conditions: endpoint: median survival time, higher = longer survival
How it was run: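 Mice carrying the transplanted tumor received test compound or vehicle. Survival was recorded in each group, and the value is the treated-group measurement divided by that of the vehicle-treated control group.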

[1] = dose: 50.0 mg/kg/injection, schedule: Q01DX005 (ip), vehicle: saline with Tween-80
[2] = dose: 100.0 mg/kg/injection, schedule: Q01DX005 (ip), vehicle: saline with Tween-80
[3] = dose: 200.0 mg/kg/injection, schedule: Q01DX005 (ip), vehicle: saline with Tween-80
[4] = dose: 60.0 mg/kg/injection, schedule: Q01DX005 (ip), vehicle: Klucel (hydroxypropylcellulose) (HPC)
[5] = dose: 120.0 mg/kg/injection, schedule: Q01DX005 (ip), vehicle: Klucel (hydroxypropylcellulose) (HPC)
[6] = dose: 12.5 mg/kg/injection, schedule: Q01DX009 (ip), vehicle: saline with Tween-80
[7] = dose: 25.0 mg/kg/injection, schedule: Q01DX009 (ip), vehicle: saline with Tween-80
[8] = dose: 50.0 mg/kg/injection, schedule: Q01DX009 (ip), vehicle: saline with Tween-80
[9] = dose: 100.0 mg/kg/injection, schedule: Q01DX009 (ip), vehicle: saline with Tween-80
[10] = dose: 200.0 mg/kg/injection, schedule: Q01DX009 (ip), vehicle: saline with Tween-80
[11] = dose: 100.0 mg/kg/injection, schedule: Q01DX001 (ip), vehicle: saline with Tween-80
[12] = dose: 200.0 mg/kg/injection, schedule: Q01DX001 (ip), vehicle: saline with Tween-80
[13] = dose: 60.0 mg/kg/injection, schedule: Q01DX005 (ip), vehicle: saline with Tween-80
[14] = dose: 120.0 mg/kg/injection, schedule: Q01DX005 (ip), vehicle: saline with Tween-80
[15] = dose: 240.0 mg/kg/injection, schedule: Q01DX005 (ip), vehicle: saline with Tween-80
[16] = dose: 25.0 mg/kg/injection, schedule: Q01DX009 (ip), vehicle: saline
[17] = dose: 50.0 mg/kg/injection, schedule: Q01DX009 (ip), vehicle: saline
[18] = dose: 100.0 mg/kg/injection, schedule: Q01DX009 (ip), vehicle: saline
[19] = dose: 200.0 mg/kg/injection, schedule: Q01DX009 (ip), vehicle: saline

Measured: T/C

c1cc[n+](Cc2c3ccccc3cc3c2ccc2ccccc23)cc1
inactive: dose: 6.25 mg/kg/injection, schedule: Q01DX005 (ip), vehicle: Klucel (hydroxypropylcellulose) (HPC) 112 % of control | dose: 12.5 mg/kg/injection, schedule: Q01DX005 (ip), vehicle: Klucel (hydroxypropylcellulose) (HPC) 112 % of control | dose: 25.0 mg/kg/injection, schedule: Q01DX005 (ip), vehicle: Klucel (hydroxypropylcellulose) (HPC) 110 % of control

c1cc2c(cn1)Sc1cnccc1N2
inactive: dose: 6.25 mg/kg/injection, schedule: Q01DX009 (ip), vehicle: distilled water + Tween-80 90 % of control | dose: 25.0 mg/kg/injection, schedule: Q01DX009 (ip), vehicle: distilled water + Tween-80 107 % of control

CCCC(Nc1nncs1)Nc1nncs1
active: dose: 400.0 mg/kg/injection, schedule: Q01DX005 (ip), vehicle: saline with Tween-80 157 % of control
inactive: [1] 101 % of control | [2] 112 % of control and 94 % of control | [3] 108 % of control

C=C1C2CCC3C4(C)CCCC(C)(C(=O)O)C4CCC3(C2)C1O (stereo not drawn)
inactive: dose: 15.0 mg/kg/injection, schedule: Q01DX005 (ip), vehicle: Klucel (hydroxypropylcellulose) (HPC) 100 % of control | dose: 30.0 mg/kg/injection, schedule: Q01DX005 (ip), vehicle: Klucel (hydroxypropylcellulose) (HPC) 100 % of control | [4] 99 % of control | [5] 100 % of control

COC1/C=C/OC2(C)Oc3c(C)c(O)c4c(O)c(c(/C=N/N5CC(C)N(C(=O)c6ccccc6)C(C)C5)c(O)c4c3C2=O)NC(=O)C(C)=C/C=C/C(C)C(O)C(C)C(O)C(C)C(OC(C)=O)C1C (stereo not drawn)
inactive: [6] 124 % of control | [7] 124 % of control | [8] 118 % of control | [9] 116 % of control | [10] 109 % of control

COc1cc2c(cc1OC)C1C(=O)c3ccc4c(c3OC1CO2)CC(C(C)(O)CO)O4 (stereo not drawn)
inactive: dose: 10.0 mg/kg/injection, schedule: Q01DX005 (ip), vehicle: DMSO 108 % of control | dose: 20.0 mg/kg/injection, schedule: Q01DX005 (ip), vehicle: DMSO 107 % of control

CCCCN(CCCC)CCCCCCCC(O)c1cc2ccccc2c2ccccc12 (stereo not drawn)
inactive: dose: 50.0 mg/kg/injection, schedule: Q01DX005 (ip), vehicle: saline + Tween-80 + alcohol 113 % of control | dose: 100.0 mg/kg/injection, schedule: Q01DX005 (ip), vehicle: saline + Tween-80 + alcohol 110 % of control

CCOC(=O)/C(O)=C/C1=CC(=O)CC(C)(C)C1
inactive: dose: 100.0 mg/kg/injection, schedule: Q04DX002 (ip), vehicle: saline with Tween-80 110 % of control | dose: 200.0 mg/kg/injection, schedule: Q04DX002 (ip), vehicle: saline with Tween-80 114 % of control | dose: 400.0 mg/kg/injection, schedule: Q04DX002 (ip), vehicle: saline with Tween-80 103 % of control

NNC(=O)C(NC(=O)c1ccccc1)C(N)=O (stereo not drawn)
inactive: dose: 100.0 mg/kg/injection, schedule: Q04DX003 (ip), vehicle: saline 95 % of control | dose: 200.0 mg/kg/injection, schedule: Q04DX003 (ip), vehicle: saline 95 % of control | dose: 400.0 mg/kg/injection, schedule: Q04DX003 (ip), vehicle: saline 94 % of control

O=C1O/C(=C2/OC(=O)c3ccccc32)c2ccccc21
inactive: dose: 3.13 mg/kg/injection, schedule: Q01DX009 (ip), vehicle: saline with Tween-80 94 % of control | dose: 6.25 mg/kg/injection, schedule: Q01DX009 (ip), vehicle: saline with Tween-80 100 % of control | [6] 100 % of control and 91 % of control | [7] 100 % of control | [8] 88 % of control | [9] 88 % of control | [10] 90 % of control | dose: 400.0 mg/kg/injection, schedule: Q01DX009 (ip), vehicle: saline with Tween-80 92 % of control

NNc1nccnc1Cl
inactive: dose: 50.0 mg/kg/injection, schedule: Q01DX001 (ip), vehicle: saline with Tween-80 102 % of control | [11] 97 % of control | [12] 108 % of control

CCC1C(OC)=CC2(CC)CC1(OC)OC2=O (stereo not drawn)
inactive: [13] 97 % of control | [14] 98 % of control | [15] 102 % of control

CCN=C1NS(=O)(=O)c2ccccc21
inactive: [1] 100 % of control | [2] 97 % of control | [3] 100 % of control

CCCC(NC(=O)OCc1ccccc1)C(=O)NCC(=O)O (stereo not drawn) (Cbz-[ξNva]-Gly-OH)
inactive: dose: 50.0 mg/kg/injection, schedule: Q01DX005 (ip), vehicle: Klucel (hydroxypropylcellulose) (HPC) 107 % of control | dose: 100.0 mg/kg/injection, schedule: Q01DX005 (ip), vehicle: Klucel (hydroxypropylcellulose) (HPC) 93 % of control | dose: 200.0 mg/kg/injection, schedule: Q01DX005 (ip), vehicle: Klucel (hydroxypropylcellulose) (HPC) 91 % of control

OCc1ncccc1O
inactive: [16] 99 % of control and 109 % of control | [17] 108 % of control and 100 % of control and 106 % of control | [18] 90 % of control and 102 % of control and 104 % of control | [19] 110 % of control and 111 % of control and 97 % of control

Nc1ccc(SSc2ccc(Nc3ccnc4cc(Cl)ccc34)cc2)cc1
inactive: [1] 92 % of control | [2] 93 % of control | [3] 91 % of control

O=C(O)CS(=O)(=O)Cc1ccc(Cl)cc1Cl
inactive: dose: 60.0 mg/kg/injection, schedule: Q01DX005 (ip), vehicle: suspension in saline 103 % of control | dose: 120.0 mg/kg/injection, schedule: Q01DX005 (ip), vehicle: suspension in saline 112 % of control | dose: 240.0 mg/kg/injection, schedule: Q01DX005 (ip), vehicle: suspension in saline 96 % of control

Cc1nc(N)c2c3c(sc2n1)CCCC3
inactive: [1] 95 % of control | [2] 97 % of control | [3] 100 % of control

C=CC(C)n1[nH]c(=O)n(-c2ccc(O)c([N+](=O)[O-])c2)c1=O (stereo not drawn)
inactive: [13] 100 % of control | [14] 98 % of control | [15] 94 % of control

O=C(CO)N(CCO)CCO
inactive: [17] 98 % of control | [18] 95 % of control | [19] 96 % of control

CC1(c2ccccc2)Nc2ccccc2N(C(=O)c2ccccc2)C1c1ccccc1 (stereo not drawn)
inactive: [4] 91 % of control | [5] 90 % of control

CCOC(=O)c1c[nH][nH]c1=O
inactive: [7] 95 % of control | [8] 93 % of control | [11] 98 % of control | [9] 101 % of control | [12] 106 % of control | [10] 100 % of control | dose: 400.0 mg/kg/injection, schedule: Q01DX001 (ip), vehicle: saline with Tween-80 94 % of control

CCN(CC)c1ccc(Pc2ccc(N(CC)CC)cc2)cc1
inactive: dose: 12.5 mg/kg/injection, schedule: Q01DX009 (ip), vehicle: saline 104 % of control | [16] 108 % of control | [17] 99 % of control and 88 % of control | [19] 92 % of control

CCC[CH2][Sn]([CH2]CCC)([CH2]CCC)[CH2]CC[N+](C)(C)C.CS(=O)(=O)[O-]
inactive: dose: 0.78 mg/kg/injection, schedule: Q01DX009 (ip), vehicle: saline 100 % of control | dose: 1.56 mg/kg/injection, schedule: Q01DX009 (ip), vehicle: saline 101 % of control | dose: 3.12 mg/kg/injection, schedule: Q01DX009 (ip), vehicle: saline 98 % of control

COc1cccc2c1C(=O)c1c(O)c3c(c(O)c1C2=O)C[C@@](O)(C(C)O)C[C@@H]3OC1CC(N2CCCCC2)C(O)C(C)O1 (stereo partly drawn)
inactive: dose: 2.5 mg/kg/injection, schedule: Q04DX003 (ip), vehicle: water 120 % of control | dose: 10.0 mg/kg/injection, schedule: Q04DX003 (ip), vehicle: water 118 % of control | dose: 20.0 mg/kg/injection, schedule: Q04DX003 (ip), vehicle: water 110 % of control | dose: 40.0 mg/kg/injection, schedule: Q04DX003 (ip), vehicle: water 96 % of control
active: dose: 5.0 mg/kg/injection, schedule: Q04DX003 (ip), vehicle: water 162 % of control

O=C(/C=C/c1ccccc1)NC1C=Nc2ccc(Cl)cc2NC1=O (stereo not drawn)
inactive: [13] 97 % of control | [14] 95 % of control | [15] 97 % of control

O=C1C2=C(Nc3cc([N+](=O)[O-])ccc3N2)OC1c1c2ccccc2cc2ccccc12 (stereo not drawn)
inactive: [4] 94 % of control | [5] 88 % of control
